Here are results for 18 molecules from PubChem BioAssay (NCI).

Some test systems named below: NCI-H23 lung; 786-0 renal; CAKI-1 renal; U251 CNS; K-562 leukemia; MOLT-4 leukemia; SNB-19 CNS; M14 melanoma; SF-295 CNS; SN12C renal.
What all share (assay): DTP human tumour cell line panel, 48 h

SMILES strings stand for the structures.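 The compound was tested at five concentrations on cells cultured in 96-well plates, with a 48-hour exposure period. The concentration for 50% growth inhibition is given as GI50. TGI: concentration producing complete growth inhibition.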 Where only a bound is given, the exact number is not on record here.

One may read the TGI as the concentration at which net growth stops. A high value points to lower sensitivity of the cells. In the case of `COC(=O)/C(=C\c1ccc(N(CCC#N)CCC#N)cc1)NC(=O)c1cc([N+](=O)[O-])ccc1Cl`, the total growth inhibition concentration (TGI) in the experiment on NCI-H23 lung, in the experiment with 786-0 renal, with CAKI-1 renal, with U251 CNS, in the experiment on K-562 leukemia and in the experiment on MOLT-4 leukemia was above 100 µM in each case. The TGI with SNB-19 CNS, in the experiment on M14 melanoma, with SF-295 CNS and in the experiment with SN12C renal was above 100 µM throughout.
`O=C(O)CN(c1ccccc1)S(=O)(=O)c1ccc([N+](=O)[O-])cc1`: the concentration for total growth inhibition (TGI) with NCI-H23 lung, in the experiment with 786-0 renal, in the experiment with CAKI-1 renal, in the experiment with U251 CNS, in the experiment on K-562 leukemia and with MOLT-4 leukemia was above 100 µM throughout. Moreover, the TGI in the experiment with SNB-19 CNS, in the experiment on M14 melanoma, with SF-295 CNS and with SN12C renal was above 100 µM throughout.
The term GI50 denotes the concentration giving 50% growth inhibition. Take `O=C(Nc1ccc(Cl)c(Cl)c1)Nc1ccccc1O`: the GI50 in the experiment on NCI-H23 lung is 2.98 µM; with 786-0 renal, 25.2 µM; in the experiment on CAKI-1 renal, 3.72 µM; in the experiment on U251 CNS it was 6.41 µM; in the experiment with K-562 leukemia, 3.4 µM; in the experiment with MOLT-4 leukemia, 3.15 µM. For the same molecule, the GI50 in the experiment on SNB-19 CNS is 9.92 µM; with M14 melanoma it was 17.7 µM; in the experiment with SF-295 CNS, 3.06 µM; in the experiment on SN12C renal it was 8.4 µM. The total growth inhibition concentration (TGI) in the experiment with NCI-H23 lung is 16.1 µM; in the experiment on 786-0 renal, 75.1 µM; in the experiment on CAKI-1 renal, 20.4 µM; in the experiment with U251 CNS, 25.3 µM; in the experiment on K-562 leukemia it was 76.8 µM; in the experiment on MOLT-4 leukemia it was 49.1 µM. Also, the TGI came out at 44.3 µM in the experiment on SNB-19 CNS, 61.9 µM in the experiment with M14 melanoma, 11.3 µM in the experiment on SF-295 CNS and 25.1 µM in the experiment on SN12C renal.
In the case of `CN1CCN(c2ccc(Nc3ncc4cc(C#N)c(=O)n(C5CCCC5)c4n3)cc2)CC1`, the GI50 with 786-0 renal is 0.693 µM; in the experiment with CAKI-1 renal, 0.346 µM; with U251 CNS it was 1.74 µM; with K-562 leukemia, 1.25 µM; in the experiment on MOLT-4 leukemia it was 0.3 µM; in the experiment with SNB-19 CNS it was 1.77 µM. For the same molecule, the values for the GI50 in the experiment with M14 melanoma, in the experiment on SF-295 CNS and with SN12C renal were 1.39 µM, 1.19 µM and 0.917 µM, respectively. Besides, the TGI in the experiment on 786-0 renal was 4.11 µM; in the experiment with CAKI-1 renal, 17.3 µM; with U251 CNS, above 100 µM; in the experiment on K-562 leukemia, above 100 µM; with MOLT-4 leukemia it was 3.17 µM; in the experiment with SNB-19 CNS, 18.7 µM. Further, the results for the TGI with M14 melanoma, in the experiment with SF-295 CNS and in the experiment with SN12C renal were above 100 µM, above 42.6 µM and 15.5 µM, respectively.
As to `O=C(NO)c1ccc(CN(c2cnccn2)c2cnccn2)cc1`, the GI50 is 15.7 µM in the experiment on 786-0 renal; 12.7 µM in the experiment on CAKI-1 renal; 7.74 µM with U251 CNS; 13 µM in the experiment on K-562 leukemia; 17.7 µM in the experiment with MOLT-4 leukemia; 17.7 µM in the experiment with SNB-19 CNS. Also, the GI50 with M14 melanoma is 11.1 µM; in the experiment on SF-295 CNS, 14.8 µM; with SN12C renal it was 18.3 µM. Further, the TGI in the experiment with 786-0 renal was 35 µM; in the experiment with CAKI-1 renal, 40.1 µM; in the experiment on U251 CNS, 21.4 µM; in the experiment with K-562 leukemia, above 100 µM; in the experiment on MOLT-4 leukemia it was above 100 µM; in the experiment with SNB-19 CNS, 72.5 µM. Moreover, the TGI in the experiment on M14 melanoma was 28.3 µM; in the experiment on SF-295 CNS, 33.4 µM; with SN12C renal, 42.5 µM.
`CC(=O)OCCOCNC(=S)N/N=C/c1ccc(Br)s1`: the TGI with NCI-H23 lung, in the experiment on 786-0 renal, with U251 CNS, in the experiment with K-562 leukemia, in the experiment with MOLT-4 leukemia and in the experiment with SNB-19 CNS was above 100 µM each time. Moreover, the TGI in the experiment with M14 melanoma, in the experiment with SF-295 CNS and with SN12C renal was above 100 µM each time.
As to `Cc1ncc([N+](=O)[O-])n1CCNS(=O)(=O)CCCn1ncnc1[N+](=O)[O-]`, the TGI with NCI-H23 lung, in the experiment on 786-0 renal, in the experiment with CAKI-1 renal, in the experiment on U251 CNS, in the experiment with K-562 leukemia and in the experiment on MOLT-4 leukemia was above 100 µM in each case. For the same molecule, the TGI in the experiment on M14 melanoma, with SF-295 CNS and with SN12C renal was above 100 µM each time.
`c1ccc(CSc2nc3ccccc3nc2-c2cccs2)cc1`: the TGI in the experiment with NCI-H23 lung, with 786-0 renal, in the experiment with U251 CNS, in the experiment on K-562 leukemia, with MOLT-4 leukemia and in the experiment on SNB-19 CNS was above 100 µM in each case. For the same molecule, the total growth inhibition concentration (TGI) in the experiment on M14 melanoma, with SF-295 CNS and in the experiment on SN12C renal was above 100 µM each time.
For `CCCCc1c2c(nc3c1CCC/C3=C\c1ccccc1)/C(=C/c1ccccc1)CCC2`, the TGI in the experiment on NCI-H23 lung, with 786-0 renal, in the experiment with U251 CNS, with K-562 leukemia, with MOLT-4 leukemia and in the experiment with SNB-19 CNS was above 100 µM each time. Moreover, the TGI with M14 melanoma, in the experiment on SF-295 CNS and with SN12C renal was above 100 µM throughout.
Regarding `CC1=C(c2cc(C(=O)Nc3ccc(Cl)cc3)nc(=S)[nH]2)Sc2ccccc2N1`, the TGI in the experiment with NCI-H23 lung, in the experiment with 786-0 renal, with CAKI-1 renal, in the experiment on U251 CNS, in the experiment on K-562 leukemia and with SNB-19 CNS was above 100 µM in each case. In addition, the concentration for total growth inhibition (TGI) in the experiment with M14 melanoma, in the experiment with SF-295 CNS and in the experiment on SN12C renal was above 100 µM throughout.
Take `O=C(OCC(OC(=O)c1ccccc1)C(OC(=O)c1ccccc1)C(OC(=O)c1ccccc1)c1cnn(-c2ccccc2)n1)c1ccccc1` (stereo unspecified): the TGI in the experiment with NCI-H23 lung, in the experiment on 786-0 renal, with CAKI-1 renal, with K-562 leukemia, with MOLT-4 leukemia and with SNB-19 CNS was above 100 µM each time. Moreover, the concentration for total growth inhibition (TGI) with M14 melanoma, in the experiment on SF-295 CNS and in the experiment on SN12C renal was above 100 µM each time.
Consider `CCOC(=O)/C(=C/c1cccc(C#N)c1)N(CC)CC`, for which the TGI with NCI-H23 lung, with 786-0 renal, with CAKI-1 renal, in the experiment on U251 CNS, with K-562 leukemia and in the experiment on MOLT-4 leukemia was above 100 µM in each case. The TGI with M14 melanoma, in the experiment on SF-295 CNS and in the experiment on SN12C renal was above 100 µM in each case.
As for `CCC(=O)Nc1ccc(N=NN(C)C)cc1`, the concentration for total growth inhibition (TGI) in the experiment with NCI-H23 lung is above 100 µM; in the experiment with 786-0 renal, above 100 µM; in the experiment on U251 CNS it was above 100 µM; in the experiment with K-562 leukemia it was above 100 µM; in the experiment on MOLT-4 leukemia, 43.4 µM; in the experiment on SNB-19 CNS it was above 100 µM. The total growth inhibition concentration (TGI) with M14 melanoma and with SN12C renal was above 100 µM in each case.
For the molecule `O=c1c2ccccc2nc(-c2ccccc2)n1NC(=S)Nc1ccccc1`, the TGI in the experiment with NCI-H23 lung, in the experiment with 786-0 renal, with CAKI-1 renal, with U251 CNS, in the experiment on K-562 leukemia and in the experiment with MOLT-4 leukemia was above 100 µM each time. Besides, the TGI in the experiment on M14 melanoma, with SF-295 CNS and with SN12C renal was above 100 µM in each case.
With `CC(C)(C)OC(=O)N1N=NC2C1C1CC(OCc3ccccc3)(OCc3ccccc3)C2O1` (stereo unspecified), the TGI in the experiment with NCI-H23 lung is 49.2 µM; in the experiment on 786-0 renal, above 100 µM; in the experiment on CAKI-1 renal, above 100 µM; in the experiment with U251 CNS it was above 100 µM; in the experiment on K-562 leukemia, 63.6 µM; with MOLT-4 leukemia it was above 100 µM. The TGI with M14 melanoma, in the experiment on SF-295 CNS and with SN12C renal was above 100 µM in each case.
Turning to `Cc1cc(C)n(-c2nnc3n2N=C(c2ccc(-c4ccccc4)cc2)CS3)n1`, the GI50 is 4.79 µM with NCI-H23 lung; 3.95 µM with 786-0 renal; 3.05 µM in the experiment on CAKI-1 renal; 3.4 µM in the experiment on U251 CNS; 3.58 µM in the experiment with K-562 leukemia; 3.66 µM with MOLT-4 leukemia. The values for the GI50 in the experiment on SNB-19 CNS, in the experiment on SF-295 CNS and with SN12C renal were 3.98 µM, 2.64 µM and 3.92 µM, respectively. Also, the TGI with NCI-H23 lung, in the experiment on 786-0 renal, with CAKI-1 renal, with U251 CNS, in the experiment with K-562 leukemia and in the experiment with MOLT-4 leukemia was above 100 µM each time. The TGI in the experiment with SNB-19 CNS was above 100 µM; in the experiment with SF-295 CNS, 7.63 µM; in the experiment with SN12C renal it was above 100 µM.
For `O=S1(=O)OCCOS(=O)(=O)C1Cl`, the TGI in the experiment on NCI-H23 lung, in the experiment on 786-0 renal, in the experiment with CAKI-1 renal, with K-562 leukemia, in the experiment with MOLT-4 leukemia and in the experiment on SNB-19 CNS was above 100 µM throughout. The TGI in the experiment on M14 melanoma, in the experiment with SF-295 CNS and with SN12C renal was above 100 µM each time.
For `COc1cc(C(=O)C/C(CCC(=O)Nc2ccc(Cl)cc2Cl)=N/NC(=O)C(=O)NN)ccc1O`, the TGI in the experiment on NCI-H23 lung, in the experiment on 786-0 renal, in the experiment with CAKI-1 renal, with U251 CNS, with K-562 leukemia and in the experiment on SNB-19 CNS was above 100 µM throughout. Also, the TGI with M14 melanoma, in the experiment with SF-295 CNS and in the experiment with SN12C renal was above 100 µM in each case.
